Experimental data from US9476099B2 (TRUSTEES OF DARTMOUTH COLLEGE, priority 2012, dated 2016).
“And” between values parts separate entries of the source, which are not always exact repeats. Equal entries are not always repeated.

Tested on: NT2/D1-R1 control and DNMT3B knockdown cells
Assay: Genome-wide expression analysis with PAM clusters, control and DNMT3B knockdown cells (Tables 8-14)
Settings: sh-Ctrl + aza
[1] = NT2/D1-R1, decitabine 10 nM 3 days

Nc1ncn([C@H]2C[C@H](O)[C@@H](CO)O2)c(=O)n1 [aza]
LOC644422 XR_019449 expression Mean (10 nM decitabine, 3 days): 332.598
LOC647954 XR_018676 expression Mean (10 nM decitabine, 3 days): 1348.27
LOC728715 XM_0011282 expression Mean (10 nM decitabine, 3 days): 1760.28
M6PRBP1 NM_005817 expression Mean (10 nM decitabine, 3 days): 2017.94
MBNL3 NM_133486 expression Mean (10 nM decitabine, 3 days): 338.893
MCM4 NM_005914 expression Mean (10 nM decitabine, 3 days): 2945.56
MEPCE NM_019606 expression Mean (10 nM decitabine, 3 days): 786.84
METTL1 NM_005371 expression Mean (10 nM decitabine, 3 days): 412.423
MORF4L2 NM_012286 expression Mean (10 nM decitabine, 3 days): 1621.68
MRTO4 NM_016183 expression Mean (10 nM decitabine, 3 days): 893.853
MT1E NM_175617 expression Mean (10 nM decitabine, 3 days): 2437.55
MTA2 NM_004739 expression Mean (10 nM decitabine, 3 days): 453.486
MYOF NM_013451 expression Mean (10 nM decitabine, 3 days): 302.746
MYOF NM_133337 expression Mean (10 nM decitabine, 3 days): 612.957
NACC2 NM_144653 expression Mean (10 nM decitabine, 3 days): 566.307
NAT5 NM_181528 expression Mean (10 nM decitabine, 3 days): 1401.34
NBPF10 NM_0010376 expression Mean (10 nM decitabine, 3 days): 816.642
NBPF10 NM_0010397 expression Mean (10 nM decitabine, 3 days): 557.142
NEFH NM_021076 expression Mean (10 nM decitabine, 3 days): 538.551
NFE2 NM_006163 expression Mean (10 nM decitabine, 3 days): 459.796
NM_002467 expression Mean (10 nM decitabine, 3 days): 896.83
NM_0010397 expression Mean (10 nM decitabine, 3 days): 736.286
NM_138781 expression Mean (10 nM decitabine, 3 days): 484.429
NODAL NM_018055 expression Mean (10 nM decitabine, 3 days): 954.925
NOP2 NM_0010337 expression Mean (10 nM decitabine, 3 days): 7589.18
NOP56 NM_006392 expression Mean (10 nM decitabine, 3 days): 1764.44
NP NM_000270 expression Mean (10 nM decitabine, 3 days): 475.426
NR_002773 expression Mean (10 nM decitabine, 3 days): 596.315
NR_003287 expression Mean (10 nM decitabine, 3 days): 634.816
NTF3 NM_002527 expression Mean (10 nM decitabine, 3 days): 286.374
NTS NM_006183 expression Mean (10 nM decitabine, 3 days): 641.496
NUAK2 NM_030952 expression Mean (10 nM decitabine, 3 days): 309.88 and 403.382
OAT NM_000274 expression Mean (10 nM decitabine, 3 days): 2902.41
ODC1 NM_002539 expression Mean (10 nM decitabine, 3 days): 3243.03
PAK1IP1 NM_017906 expression Mean (10 nM decitabine, 3 days): 644.744
PEA15 NM_003768 expression Mean (10 nM decitabine, 3 days): 2263.16
PEG3 NM_006210 expression Mean (10 nM decitabine, 3 days): 442.766
PITX1 NM_002653 expression Mean (10 nM decitabine, 3 days): 947.042
PLAU NM_002658 expression Mean (10 nM decitabine, 3 days): 1093.87
PLEKHF1 NM_024310 expression Mean (10 nM decitabine, 3 days): 716.406
POLR1C NM_203290 expression Mean (10 nM decitabine, 3 days): 533.492 and 971.221
PPA2 NM_006903 expression Mean (10 nM decitabine, 3 days): 1058.5
PPAN NM_002566 expression Mean (10 nM decitabine, 3 days): 615.062
RBM22 NM_018047 expression Mean (10 nM decitabine, 3 days): 921.101
RNMTL1 NM_018146 expression Mean (10 nM decitabine, 3 days): 708.14
RPL6 NM_0010246 expression Mean (10 nM decitabine, 3 days): 1189.55
RRM2 NM_001034 expression Mean (10 nM decitabine, 3 days): 697.476
RSL1D1 NM_015659 expression Mean (10 nM decitabine, 3 days): 1413.6
RUNX3 NM_004350 expression Mean (10 nM decitabine, 3 days): 484.199
SERPINE1 NM_000602 expression Mean (10 nM decitabine, 3 days): 539.652
SERTAD1 NM_013376 expression Mean (10 nM decitabine, 3 days): 534.101
SFXN4 NM_213649 expression Mean (10 nM decitabine, 3 days): 724.081
SIDT2 NM_0010404 expression Mean (10 nM decitabine, 3 days): 528.693
SLC20A1 NM_005415 expression Mean (10 nM decitabine, 3 days): 1468.1
SNAPC4 NM_003086 expression Mean (10 nM decitabine, 3 days): 1200.9
SOCS2 NM_003877 expression Mean (10 nM decitabine, 3 days): 288.614 and 566.518
SOX15 NM_006942 expression Mean (10 nM decitabine, 3 days): 2791.76
SPANXD NM_145665 expression Mean (10 nM decitabine, 3 days): 210.19
SPRYD5 NM_032681 expression Mean (10 nM decitabine, 3 days): 519.493
SQSTM1 NM_003900 expression Mean (10 nM decitabine, 3 days): 2145.19
SRRT NM_015908 expression Mean (10 nM decitabine, 3 days): 4196.33
SUSD2 NM_019601 expression Mean (10 nM decitabine, 3 days): 2570.13
TAGLN NM_003186 expression Mean (10 nM decitabine, 3 days): 1178.17
TNFRSF12A NM_016639 expression Mean (10 nM decitabine, 3 days): 519.778
TNFRSF13B NM_012452 expression Mean (10 nM decitabine, 3 days): 179.31
TNPO1 NM_153188 expression Mean (10 nM decitabine, 3 days): 439.283
TPRG1L NM_182752 expression Mean (10 nM decitabine, 3 days): 1513.68
TRIM8 NM_030912 expression Mean (10 nM decitabine, 3 days): 922.659
TTC4 NM_004623 expression Mean (10 nM decitabine, 3 days): 1457.62
UTP14A NM_006649 expression Mean (10 nM decitabine, 3 days): 555.285
WBSCR22 NM_017528 expression Mean (10 nM decitabine, 3 days): 1107.76
XM_0011261 expression Mean (10 nM decitabine, 3 days): 718.505
XM_0011281 expression Mean (10 nM decitabine, 3 days): 2231.09
XR_015970 expression Mean (10 nM decitabine, 3 days): 1080.49
XR_016703 expression Mean (10 nM decitabine, 3 days): 6659.76
XR_017241 expression Mean (10 nM decitabine, 3 days): 10363
XR_017543 expression Mean (10 nM decitabine, 3 days): 832.234
ZDHHC6 NM_022494 expression Mean (10 nM decitabine, 3 days): 528.208
ZHX2 NM_014943 expression Mean (10 nM decitabine, 3 days): 479.456
A4GALT (NM_017436) gene expression, Mean [1]: 174.249
ABR (NM_001092) gene expression, Mean [1]: 424.634
ACACA (NM_198836) gene expression, Mean [1]: 443.13
